Patent publication US20250325670A1, “NOVEL BORON AGENT” (priority 2021, published 2025)

Key:
[1] = system: A549 cells (FRα(−)); test: BNCT antitumor effect in vitro (thermal neutron irradiation, MTT survival rate); type: cell-based, human; details: 25 ppm 10B, 3 hours, thermal neutron dose-dependent, MTT after 96 hours
Experimental: (A) Human brain tumor cell U87MG (FRα(+)), (B) human lung cancer cell A549 (FRα(−)). The cells were cultured for 3 hours with an agent ^10B at a concentration of 25 ppm, followed by removal of the agent and irradiated.
Cells (A549 1000 cells/well or U-87 MG 500 cells/well) seeded in a 96 well plate were cultured together with PBC-IP and L-BPA-fructose at a concentration of 25 ppm [^10B] at 37° C. for 3 hours, and then unilaterally irradiated with thermal neutrons from one side of the plate for 12 minutes. Subsequently, the medium was replaced, the cells were cultured for 96 hours, and then an MTT assay was carried out to evaluate the survival rate of the cells (FIG. 3). The thermal neutron irradiation was carried out by using the irradiation facility of the Institute for Integrated Radiation and Nuclear Science, Kyoto University (KUR), and the cells after irradiation were cultured in the controlled area of KUR. In addition, the survival rate is calculated based on the following expression.

[2] = system: A549, U87MG, C6, F98 cells; test: Intracellular boron accumulation in various cells (ICP-AES); type: cell-based, human, rat; details: 5 μg B/mL
Experimental: F98 rat malignant glioblastoma cells were provided by Dr. Rolf Barth (Department of Pathology, The Ohio State University, Columbus, OH, US) and were cultured at 37° C. in 5% CO^2 by using Dulbecco's modified Eagle's medium (DMEM) supplemented with 10% fetal bovine serum (FBS) and 10% penicillin/streptomycin/amphotericin B. The F98 rat malignant glioblastoma cells were histologically characterized as anaplastic astrocytoma.
First, 5×10^5 cells were placed in a 100 mm dish (Becton Dickinson, Franklin Lakes, New Jersey) and cultured at 37° C. in 5% CO2 by using the medium described above. […] After that, the medium containing the boron compound was removed, and the cells were washed twice with 4% phosphate buffered saline (PBS) and then detached with a trypsin-ethylenediaminetetraacetic acid solution. After that, a medium was added, centrifugation (200×g, 5 minutes) was carried out twice, and cells were counted and finally sedimented. After that, the cells were digested with a 1 N nitric acid solution (Wako Pure Chemical Industries, Osaka Japan) overnight, and the amount of boron taken up was measured by inductively coupled plasma-atomic emission spectroscopy (ICP-AES) using an iCAP6300 emission spectrometer (Hitachi High-Technologies, Tokyo, Japan).

[3] = system: F98 malignant glioblastoma; test: BNCT therapeutic effect (survival time) in F98 malignant glioblastoma cell-implanted rat brain tumor model; type: in vivo; details: after tumor implantation; BNCT with BPA (iv) or PBC-IP (CED)
Experimental: Three hours after administration of PBC-IP (CED), neutron irradiation was carried out to verify the therapeutic effect of neutron capture therapy (FIG. 7). The brain tumor models were divided into an untreated group, a neutron irradiation only group, a BNCT with BPA (iv) group, a BNCT with local administration of PBC-IP (CED) group, and a PBC-IP (CED) plus BPA (iv) group to carry out a treatment experiment, and the survival times after tumor implantation were compared. The therapeutic effect of intravenous BPA as a control for BNCT treatment represented a significant prolongation of survival time with a median survival time of 37 days. […] The effect was even higher in the group that received treatment with PBC-IP (CED) […] plus intravenous BPA, indicating the antitumor effect of PBC-IP on a BPA-refractory tumor site. In the C6-implanted rat brain tumor model, the tumor boron concentration by PBC-IP (CED) was about 36 ppm, which was higher than that for F98.
In a BNCT experiment, 14 days after implantation of 10^3 F98 malignant glioblastoma cells, neutron irradiation was carried out by using KURRI. Malignant glioblastoma cell-bearing rats were randomly divided into 5 groups (groups 1 to 5) so that each group consisted of 6 to 10 rats. […] The therapeutic effect was evaluated by the survival times of all rats.

[4] = Changes in body weight after BNCT irradiation; type: in vivo, mouse; details: 25 mg (10B)/kg iv, neutron irradiated
Experimental: As described in (A), the U-87 MG tumor-bearing mice were injected with 200 μL of a PBS solution of a boron compound (PBC-IP-HSA, L-BPA: 25 mg (^10B)/kg for each) through the tail vein. The whole mouse was placed in an acrylic mouse holder and fixed to a thermoplastic plate having a thickness of 5 mm. Three hours (L-BPA) or six hours (PBC-IP-HSA) after administration, the right thigh of the mouse was irradiated with a neutron in a dose range of 4.5 to 6.1×10^12 neutrons/cm^2 in the KUR reactor. The BNCT effect was evaluated based on the changes in tumor volume in the mouse (FIG. 4B). In order to determine the tumor volume, two perpendicular diameters of the tumor were measured with slide calipers and calculated by using the spherical volume expression {4/3π×(R/2)^3}. Here, R is the average of the longest dimension and the shortest dimension (each in millimeters) of the tumor.
In the irradiation experiment carried out in (B), changes in body weight after irradiation were measured.

## N[C@@H](Cc1ccc(B(O)O)cc1)C(=O)O [BPA]
[1]
  BNCT antitumor effect (cell survival rate): higher BNCT antitumor effect
[2]
  selective accumulation among the four types of cells: selective accumulation in the A549 cells
[3]
  median survival time: 37 days
[4]
  changes in body weight after irradiation compared with the control group: no significant difference
